This is an account of results in patent US10611740B2, “Aryl dihydro-2H-benzo[b][1,4]oxazine sulfonamide and related compounds for use as agonists of RORγ and the treatment of disease” (Lycera Corporation, priority 2015, dated 2020).

The pEC50 is the EC50 on a negative log10 scale, so that one unit is a factor of ten.

pEC50: −log10 of the molar value.

One assay has as its target T1, Gal4-RORγ-LBD (Homo sapiens, UniProt P51449).
T1 construct: expressed in transfected cells; host or cells: HEK-293 cells (pcDNA3.1neo plasmid)
T1 sequence (P51449 269-508 limits assumed): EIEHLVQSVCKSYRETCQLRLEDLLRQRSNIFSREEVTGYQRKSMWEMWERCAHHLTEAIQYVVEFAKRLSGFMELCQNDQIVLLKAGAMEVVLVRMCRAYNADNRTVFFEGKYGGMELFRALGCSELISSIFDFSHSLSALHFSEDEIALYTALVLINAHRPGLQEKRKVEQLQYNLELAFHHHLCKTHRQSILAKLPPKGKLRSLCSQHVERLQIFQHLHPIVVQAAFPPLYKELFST
Description: Gal4-RORγ Luciferase Reporter Assay in HEK-293T Cells. Type of assay: cell-based. The note with it: HEK-293 cells. Summed up: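 HEK-293 cells were transiently co-transfected with Gal4-RORγ-LBD and pGL4.31 Gal4-luciferase, with ursolic acid added at 2 μM final. Compounds were incubated overnight at 37° C. in 0.2% DMSO and luminescence read with One-Glo. Max Response is the upper plateau of a 4-parameter logistic fit, with signal lacking ursolic acid or compound set to 100.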

A further assay deals with T2, RORγ-LBD (Homo sapiens, UniProt P51449).
T2 construct: made in house; host or cells: SF9 cells (baculovirus)
T2 sequence (P51449 269-508 limits assumed): T1 sequence (P51449 269-508 limits assumed)
Description: RORγ-Ligand Binding Domain (LBD) TR-FRET Assay.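 As to TR-FRET Assay Max Response: 665/615 nm ratio relative to signal without ursolic acid or compound set at 100.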 Type of assay: biochemical. Put shortly:
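Compounds, diluted in DMSO and then in assay buffer (1% DMSO final), were combined with His-tagged RORγ-LBD lysate at roughly 3 nM final and a 200 nM biotinylated SRC1 LXXLL peptide. Ursolic acid was included at 2 μM final. Coactivator recruitment was detected by TR-FRET.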

[1] abbreviates: luciferase reporter, with 2 μM ursolic acid.

For the molecule `Cn1cc(C(=O)NC[C@H]2CN(S(=O)(=O)c3cccc(C(F)(F)F)c3)c3cc(-c4cccc(C(F)(F)F)n4)ccc3O2)c(C(F)(F)F)n1` [Compound 30BN, (S)-1-methyl-3-(trifluoro-methyl)-N-((4-((3-(trifluoro-methyl)phenyl)sulfonyl)-6-(6-(trifluoromethyl)pyridin-2-yl)-3,4-dihydro-2H-benzo[b][1,4]-oxazin-2-yl)methyl)-1H-pyrazole-4-carboxamide], at Gal4-RORγ-LBD (2 μM ursolic acid), the pEC50 is less than 5.00 and the “Gal4-RORγ Assay Max Response” value is reported as “* (The symbol “*” indicates a value in the range of 25 to 90)”. In addition, on RORγ-LBD, the negative logarithm of the EC50 (pEC50) was 5.30 to 6.30 and the “TR-FRET Assay Max Response” value was “*** (The symbol “***” indicates a value in the range of greater than 150 to 200)”.
Consider `CC(C)(C(=O)NC[C@H]1CN(S(=O)(=O)c2cccc(C(F)(F)F)c2)c2cc(-c3cccc(C(F)(F)F)n3)ccc2O1)C(F)(F)F` [Compound 30BY, (S)-3,3,3-trifluoro-2,2-dimethyl-N-((4-((3-(trifluoromethyl)-phenyl)sulfonyl)-6-(6-(trifluoro-methyl)pyridin-2-yl)-3,4-dihydro-2H-benzo[b][1,4]-oxazin-2-yl)methyl)propanamide], for which, at Gal4-RORγ-LBD (2 μM ursolic acid), the pEC50 was 5.30 to 6.30 and the “Gal4-RORγ Assay Max Response” value was “* (The symbol “*” indicates a value in the range of 25 to 90)”. Moreover, at RORγ-LBD, the negative logarithm of the EC50 (pEC50) is 5.30 to 6.30 and the “TR-FRET Assay Max Response” value is on record as “*** (The symbol “***” indicates a value in the range of greater than 150 to 200)”.
Regarding `CC(C)(F)C(=O)NC[C@H]1CN(S(=O)(=O)c2cccc(C(F)(F)F)c2)c2cc(-c3cccc(F)c3Cl)ccc2O1` [Compound 30BZ, (S)-N-((6-(2-chloro-3-fluoro-phenyl)-4-((3-(trifluoromethyl)-phenyl)sulfonyl)-3,4-dihydro-2H-benzo[b][1,4]oxazin-2-yl)methyl)-2-fluoro-2-methylpropanamide], on Gal4-RORγ-LBD (2 μM ursolic acid), the pEC50 is more than 6.30 and the “Gal4-RORγ Assay Max Response” value was “* (The symbol “*” indicates a value in the range of 25 to 90)”. Further, at RORγ-LBD, the pEC50 was more than 6.30 and the “TR-FRET Assay Max Response” value was “**** (The symbol “****” indicates a value greater than 200)”.
In the case of `CC(C)(O)C(=O)NCC[C@H]1CN(S(=O)(=O)c2cccc(C(F)(F)F)c2)c2cc(-c3cncc(C(F)(F)F)c3)ccc2O1` [Compound 30C, (S)-2-hydroxy-2-methyl-N-(2-(4-((3-(trifluoromethyl)-phenyl)sulfonyl)-6-(5-(trifluoromethyl)pyridin-3-yl)-3,4-dihydro-2H-benzo[b][1,4]oxazin-2-yl)ethyl)propanamide], at Gal4-RORγ-LBD (setting [1]), the pEC50 is more than 6.30 and the “Gal4-RORγ Assay Max Response” value is reported as “* (The symbol “*” indicates a value in the range of 25 to 90)”. For the same molecule, at RORγ-LBD, the negative logarithm of the EC50 (pEC50) is more than 6.30 and the “TR-FRET Assay Max Response” value is listed as “**** (The symbol “****” indicates a value greater than 200)”.
In the case of `O=C(NC[C@H]1CN(S(=O)(=O)c2cccc(C(F)(F)F)c2)c2cc(-c3cccc(F)c3Cl)ccc2O1)C(=O)C1CC1` [Compound 30CA, (S)-N-((6-(2-chloro-3-fluoro-phenyl)-4-((3-(trifluoromethyl)-phenyl)sulfonyl)-3,4-dihydro-2H-benzo[b][1,4]oxazin-2-yl)methyl)-2-cyclopropyl-2-oxoacetamide], at Gal4-RORγ-LBD (2 μM ursolic acid), the negative logarithm of the EC50 (pEC50) was more than 6.30 and the “Gal4-RORγ Assay Max Response” value was “* (The symbol “*” indicates a value in the range of 25 to 90)”. Also, at RORγ-LBD, the negative-log EC50 (pEC50) was more than 6.30 and the “TR-FRET Assay Max Response” value is “*** (The symbol “***” indicates a value in the range of greater than 150 to 200)”.
`O=C(NC[C@H]1CN(S(=O)(=O)c2cccc(C(F)(F)F)c2)c2cc(-c3cccc(F)c3Cl)ccc2O1)C1(CO)CC1` [Compound 30CB, (S)-N-((6-(2-chloro-3-fluoro-phenyl)-4-((3-(trifluoromethyl)-phenyl)sulfonyl)-3,4-dihydro-2H-benzo[b][1,4]oxazin-2-yl)methyl)-1-(hydroxymethyl)-cyclopropane-1-carboxamide]: on Gal4-RORγ-LBD (2 μM ursolic acid), the negative-log EC50 (pEC50) is more than 6.30 and the “Gal4-RORγ Assay Max Response” value is listed as “* (The symbol “*” indicates a value in the range of 25 to 90)”. Further, at RORγ-LBD, the negative logarithm of the EC50 (pEC50) was more than 6.30 and the “TR-FRET Assay Max Response” value is recorded as “*** (The symbol “***” indicates a value in the range of greater than 150 to 200)”.
